These are literature values, as cited in article PMC13231908, “Evaluating acridones as novel therapeutics for human babesiosis” (Antimicrobial Agents and Chemotherapy, 2026).

The structures appear in SMILES notation.

For the data set the following is noted: mouse, in vivo, po, 80 mg/kg.

In the case of `O=c1c2cc(F)c(Oc3ccc(OC(F)(F)F)cc3)cc2[nH]c2cc(Cl)cc(F)c12` [T226], the AUCinf was 95.7 ng·h/mL and the AUClast is 33.9 ng·h/mL. For the molecule `O=c1c2ccc(Oc3ccc(OC(F)(F)F)cc3)cc2[nH]c2cc(Cl)cc(F)c12` [T111], the AUCinf was […].
